Assay results as given in BindingDB's records for PubMed 2138666 (Department of Veterans Affairs Medical Center, 1990).

Columns and labels:
[1] = target: T1, Alpha-2C adrenergic receptor (Rattus norvegicus, UniProt P22086)
T1 sequence (P22086 whole entry): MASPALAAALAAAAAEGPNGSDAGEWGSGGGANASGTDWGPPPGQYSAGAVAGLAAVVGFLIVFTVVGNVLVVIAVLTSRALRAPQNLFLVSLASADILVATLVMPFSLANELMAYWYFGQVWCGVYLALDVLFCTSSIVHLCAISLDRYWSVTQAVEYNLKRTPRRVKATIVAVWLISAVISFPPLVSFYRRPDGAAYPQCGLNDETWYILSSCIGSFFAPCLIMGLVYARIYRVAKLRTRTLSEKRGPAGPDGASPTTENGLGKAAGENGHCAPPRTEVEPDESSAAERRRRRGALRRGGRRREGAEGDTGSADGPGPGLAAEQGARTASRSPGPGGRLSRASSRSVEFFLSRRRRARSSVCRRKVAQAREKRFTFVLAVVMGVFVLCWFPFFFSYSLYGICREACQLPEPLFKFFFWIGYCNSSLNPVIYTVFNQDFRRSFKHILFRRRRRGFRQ

D(2) dopamine receptor = D(2) dopamine receptor (Rattus norvegicus, UniProt P61169)
Sequence of D(2) dopamine receptor (P61169 whole entry): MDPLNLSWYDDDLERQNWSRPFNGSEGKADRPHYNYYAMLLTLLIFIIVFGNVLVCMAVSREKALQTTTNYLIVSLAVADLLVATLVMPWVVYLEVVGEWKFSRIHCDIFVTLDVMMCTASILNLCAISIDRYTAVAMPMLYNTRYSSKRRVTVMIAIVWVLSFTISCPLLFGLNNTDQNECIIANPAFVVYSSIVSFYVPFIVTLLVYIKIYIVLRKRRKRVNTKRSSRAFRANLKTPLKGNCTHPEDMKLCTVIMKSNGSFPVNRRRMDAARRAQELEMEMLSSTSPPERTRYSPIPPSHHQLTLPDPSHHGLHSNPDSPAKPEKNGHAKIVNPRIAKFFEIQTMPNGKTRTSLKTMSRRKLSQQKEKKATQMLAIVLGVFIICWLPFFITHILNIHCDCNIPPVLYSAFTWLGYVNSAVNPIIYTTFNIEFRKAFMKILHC

Row | Compound | Ki [1] [µM] | Ki (D(2) dopamine receptor) [µM]
1 | CC(C)(C)[C@]1(O)CCN2C[C@H]3c4ccccc4CCc4cccc(c43)[C@@H]2C1 | 0.158 | 
2 | c1ccc2c(c1)OCC(C1=NCCN1)O2 (stereo not given) |  | > 10
3 | Clc1cccc(Cl)c1N=C1NCCN1 [2-(2,6-dichloroanilino)-2-imidazoline] |  | > 10
4 | CCN1CCCC1CNC(=O)c1cc(S(N)(=O)=O)ccc1OC (stereo not given) [N-[(1-ethylpyrrolidin-2-yl)methyl]-2-methoxy-5-sulfamoylbenzamide] | 4.3 | 
5 | Nc1cc(Cl)c(N=C2NCCN2)c(Cl)c1 [p-AMINOCLONIDINE] |  | > 10
